Laboratory results published in patent publication US20220119868A1, “PROFILING RNA-SMALL MOLECULE BINDING SITES WITH OLIGONUCLEOTIDES” (priority 2018, published 2022).

Assays:
[1] = target: RNA motif 5′AAC3′/3′U_G5′ (from RNA library C); test: In solution, fluorescence-based binding affinity assay
Description: (§1) Affinity of Selected RNA Motif-Small Molecule Interactions. The affinity of exemplar compounds that have inherent fluorescence was measured. […] . Binding affinities were confirmed using a label-free method, biolayer interferometry.
(§2) where n1 is the size of Population 1 (number of sequencing reads for a given RNA from RNA-seq analysis of the selected library), n2 is the size of Population 2 (number of sequencing reads for the same RNA from RNA-seq analysis of the starting library), p1 is the observed proportion of Population 1 (the number of reads for a given RNA from selected library/total number of reads), and p2 is the observed proportion for Population 2 (the number of reads for the same RNA in the starting library/total number of reads). Generation of Logos and DiffLogos: Zobs corresponding to the highest (enriched) 0.5% and lowest (discriminated against) 0.5% scores were analyzed to generate consensus sequences, or Logos. The resulting list of sequences were converted to position weight matrix (PWM) lists for each compound. “Enriched” and “discriminated” sequences were kept separate using JMP®, Version <13.2.1>. SAS Institute Inc., Cary, N.C., 1989-2007. The R package Difflogo,^16 which is part of Bioconductor, was utilized to create the sequence logos from PWM lists for each compound and visually compare the differences between them. Binding Affinity Measurements. Dissociation constants were determined using an in solution, fluorescence-based assay. […] Serial dilutions (1:2) of the small molecule were then completed in 1× Assay Buffer supplemented with 1 mM MgCl2. The solutions were incubated for 30 min at room temperature, transferred to a 96-well plate, and fluorescence intensity measured on a BioTek-FLx800 plate reader. The change in fluorescence intensity as a function of small molecule concentration was fit to a one site binding model per equation 3: […]
(§3) Effect of compounds on HCV replication. […] Cytotoxicity assays. […] Oligonucleotide profiling of target engagement in vitro. […] Primers can be found in Table 4. […] Inhibition of kinases. […] . Figure S7C).

[2] = target: RNA motif 5′GAG3′/3′C_C5′ (from RNA library C); test: as above
Description: as §1, §2, §3

[3] = target: RNA motif 5′UGU3′/3′G_A5′ (from RNA library C); test: as above
Description: as §1, §2, §3

[4] = target: RNA motif 5′UCCAU3′/3′AUCA (non-binder); test: as above
Description: as §1, §2, §3

[5] = target: RNA motif 5′UCCUU3′/3′AUUA5′ (non-binder); test: as above
Description: as §1, §2, §3

[6] = target: RNA motif 5′UCUAU3′/3′ACCA5′ (from RNA library C); test: as above
Description: as §1, §2, §3

[7] = target: RNA motif 5′GAU3′/3′C_A5′ (from RNA library C); test: as above
Description: as §1, §2, §3

[8] = target: RNA motif 5′GCU3′/3′C_A5′ (from RNA library C); test: as above
Description: as §1, §2, §3

CHK1 = CHK1 (Homo sapiens, UniProt O14757); test: In vitro inhibition of a panel of kinases; type: biochemical; details: 20 μM
From the text: as §3

Sequence of CHK1 (O14757 whole entry): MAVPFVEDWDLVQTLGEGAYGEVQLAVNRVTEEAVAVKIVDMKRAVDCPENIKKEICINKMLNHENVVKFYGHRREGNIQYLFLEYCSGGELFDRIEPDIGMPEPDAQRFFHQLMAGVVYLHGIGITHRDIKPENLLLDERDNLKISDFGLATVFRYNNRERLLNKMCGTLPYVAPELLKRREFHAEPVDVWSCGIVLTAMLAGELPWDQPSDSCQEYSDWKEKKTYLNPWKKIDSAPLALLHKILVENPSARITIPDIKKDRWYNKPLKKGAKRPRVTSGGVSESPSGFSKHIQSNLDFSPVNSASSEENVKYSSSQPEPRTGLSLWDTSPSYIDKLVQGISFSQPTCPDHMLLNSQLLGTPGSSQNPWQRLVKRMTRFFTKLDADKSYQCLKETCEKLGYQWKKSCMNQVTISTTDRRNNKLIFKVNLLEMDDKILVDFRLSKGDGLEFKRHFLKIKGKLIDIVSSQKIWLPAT

SMILES | Kd [1] [nM] | Kd [2] [nM] | Kd [3] [nM] | Kd [4] [nM] | Kd [5] [nM] | Kd [6] [nM] | Kd [7] [nM] | Kd [8] [nM] | inhibition of CHK1 in vitro (CHK1)
O=C(Nc1cccc(NC(=O)Nc2cc(C(=O)Nc3ccc(C4=NCCN4)cc3)ccc2C(=O)Nc2ccc(C3=NCCN3)cc2)c1)Nc1cc(C(=O)Nc2ccc(C3=NCCN3)cc2)ccc1C(=O)Nc1ccc(C2=NCCN2)cc1 [Compound 7] | 420 ± 41 | 410 ± 26 | 630 ± 36 | 7200 ± 418 | 2080 ± 300 |  |  |  | 
O=C(Nc1ccc(C2=NCCN2)cc1)c1cc(C(=O)Nc2ccc(C3=NCCN3)cc2)cc(C(=O)Nc2ccc(C3=NCCN3)cc2)c1 [Compound 8] |  |  |  |  |  | 5580 ± 440 | 600 ± 61 | 450 ± 47 | inhibited
